Assay results: patent US7335632B2, “Beta-secretase inhibitors and methods of use thereof” (CoMentis, Inc., priority 2001, dated 2008)

What was measured:
Format in all cases: biochemical
[1] = molecular target: Cathepsin D (Homo sapiens, UniProt P07339); test: Inhibition of cathepsin D activity (substrate peptide […], MALDI-TOF); details: pH 4.1, 37 degrees C., substrate NH3-[…]-CO2, MALDI-TOF; read-out: Cath D Ki
[2] = molecular target: T1, memapsin 1 (Homo sapiens, UniProt Q9Y5Z0); test: Inhibition of memapsin 1 beta-secretase activity (substrate peptide […], MALDI-TOF); details: pH 4.1, 37 degrees C., substrate NH3-ELDLAVEFWHDR-CO2, MALDI-TOF; read-out: M1 Ki
T1 sequence (Q9Y5Z0 63-518): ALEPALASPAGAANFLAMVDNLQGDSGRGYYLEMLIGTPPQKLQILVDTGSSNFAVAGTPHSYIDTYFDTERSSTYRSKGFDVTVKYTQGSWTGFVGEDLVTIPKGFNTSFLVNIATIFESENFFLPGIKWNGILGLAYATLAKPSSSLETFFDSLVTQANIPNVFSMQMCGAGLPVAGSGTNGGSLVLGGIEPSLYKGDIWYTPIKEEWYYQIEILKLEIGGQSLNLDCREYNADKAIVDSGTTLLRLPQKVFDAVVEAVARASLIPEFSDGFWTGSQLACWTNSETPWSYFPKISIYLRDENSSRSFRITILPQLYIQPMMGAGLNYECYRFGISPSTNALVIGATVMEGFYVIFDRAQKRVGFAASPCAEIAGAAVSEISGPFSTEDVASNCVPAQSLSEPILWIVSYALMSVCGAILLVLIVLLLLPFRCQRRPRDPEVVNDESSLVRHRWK

[3] = molecular target: memapsin 2 (Homo sapiens, UniProt P56817); test: Inhibition of memapsin 2 beta-secretase activity toward fluorogenic substrate FS-2; details: pH 4, 37° C., 20 minutes pre-incubation, substrate FS-2, tight-binding model; read-out: M2 Ki
Protocol: Potency of compounds were determined by measurement of their inhibition of memapsin 2 activity toward a fluorescent substrate. […] Briefly, assays were performed at pH 4, 37° C., by pre-incubation of memapsin 2 enzyme with compound for 20 minutes. Activity measure was initiated by addition of a fluorogenic substrate FS-2 (Bachem Americas, Torrance, Calif.). Fluorescent signal increase over time was measured as a rate of hydrolysis of the peptide substrate.

Cathepsin D, sequence (P07339 65-412, species assumed): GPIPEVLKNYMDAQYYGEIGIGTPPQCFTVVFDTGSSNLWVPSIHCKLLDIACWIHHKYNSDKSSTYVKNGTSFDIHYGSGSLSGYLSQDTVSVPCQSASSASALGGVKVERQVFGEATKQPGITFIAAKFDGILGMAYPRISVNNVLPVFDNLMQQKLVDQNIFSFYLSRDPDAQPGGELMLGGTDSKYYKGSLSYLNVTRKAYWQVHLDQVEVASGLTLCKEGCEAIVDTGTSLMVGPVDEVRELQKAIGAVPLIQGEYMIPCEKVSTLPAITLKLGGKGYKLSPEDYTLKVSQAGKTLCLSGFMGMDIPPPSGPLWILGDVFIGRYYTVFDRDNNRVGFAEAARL
memapsin 2, sequence (P56817 46-501): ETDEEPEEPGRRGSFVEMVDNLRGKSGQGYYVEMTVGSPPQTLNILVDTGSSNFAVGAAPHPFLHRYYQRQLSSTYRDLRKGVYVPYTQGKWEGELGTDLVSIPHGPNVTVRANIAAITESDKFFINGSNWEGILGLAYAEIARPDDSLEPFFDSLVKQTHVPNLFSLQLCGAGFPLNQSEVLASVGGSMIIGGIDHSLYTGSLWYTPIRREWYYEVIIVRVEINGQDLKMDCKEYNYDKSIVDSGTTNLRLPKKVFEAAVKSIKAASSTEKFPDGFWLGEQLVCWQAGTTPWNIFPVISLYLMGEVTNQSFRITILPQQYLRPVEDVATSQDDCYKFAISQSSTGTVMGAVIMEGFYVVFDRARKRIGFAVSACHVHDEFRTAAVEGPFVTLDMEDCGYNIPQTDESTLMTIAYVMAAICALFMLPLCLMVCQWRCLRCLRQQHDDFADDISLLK

| Compound | Ki [1] | Ki [2] | Ki [3] |
| --- | --- | --- | --- |
| CSC[C@H](NC(=O)OCc1nccn1C)C(=O)N[C@@H](CC(C)C)[C@@H](O)C[C@@H](C)C(=O)N[C@@H](C(=O)NCC(C)C)C(C)C [Structure 6] | 0.1 to 1 µM | < 0.1 µM | > 1 µM |
| CSC[C@H](NC(=O)CC(C)n1nc(C)cc1C)C(=O)N[C@@H](CC(C)C)[C@@H](O)C[C@@H](C)C(=O)N[C@H](C(=O)NCC(C)C)C(C)C (stereo partly drawn) [Structure 11] | < 0.1 µM | 0.1 to 1 µM | > 1 µM |
| COCCOCSC[C@H](NC(=O)OCc1nc(C)cs1)C(=O)N[C@H](CC(C)C)[C@@H](O)C[C@@H](C)C(=O)N[C@@H](C(=O)NCC(C)C)C(C)C [Structure 23] | < 0.1 µM | 0.1 to 1 µM | < 0.1 µM |
| CSC[C@H](NC(=O)CCc1nc(C)oc1C)C(=O)N[C@H](CC(C)C)[C@@H](O)C[C@@H](C)C(=O)N[C@@H](C(=O)NCC(C)C)C(C)C [Structure 41] | < 0.1 µM | 0.1 to 1 µM | < 0.1 µM |
| CSC[C@H](NC(=O)OCc1coc(C)n1)C(=O)N[C@H](CC(C)C)[C@@H](O)C[C@@H](C)C(=O)N[C@@H](C(=O)NCC(C)C)C(C)C [Structure 27] | < 0.1 µM | 0.1 to 1 µM | 0.1 to 1 µM |
| CSC[C@H](NC(=O)OCc1noc(C)n1)C(=O)N[C@H](CC(C)C)[C@@H](O)C[C@@H](C)C(=O)N[C@@H](C(=O)NCC(C)C)C(C)C [Structure 61] | < 0.1 µM | > 1 µM | 0.1 to 1 µM |
| CSC[C@H](NC(=O)OCc1nc(C)oc1C)C(=O)N[C@H](CC(C)C)[C@@H](O)C[C@@H](C)C(=O)N[C@@H](C(=O)OCc1ccccc1)C(C)C [Structure 84] | 0.1 to 1 µM | > 1 µM | > 1 µM |
| CSC[C@H](NC(=O)[C@@H](C)Cc1nc(C)oc1C)C(=O)N[C@@H](CC(C)C)[C@@H](O)C[C@@H](C)C(=O)N[C@H](C(=O)NCC(C)C)C(C)C [Structure 97] | < 0.1 µM | 0.1 to 1 µM | < 0.1 µM |

Results, then the compound that gave them:

| Ki [1] | Ki [2] | Ki [3] | Compound |
| --- | --- | --- | --- |
| 0.1 to 1 µM | < 0.1 µM | 0.1 to 1 µM | Cc1nc(COC(=O)N[C@@H](CS(C)(=O)=O)C(=O)N[C@H](CC(C)C)[C@@H](O)C[C@@H](C)C(=O)N[C@@H](C(=O)NCC(C)C)C(C)C)cs1 [Structure 25] |
| 0.1 to 1 µM | < 0.1 µM | < 0.1 µM | Cc1nc(COC(=O)N[C@@H](CS(C)(=O)=O)C(=O)N[C@H](CC(C)C)[C@@H](O)C[C@@H](C)C(=O)N[C@@H](C(=O)NCc2cccnc2)C(C)C)c(C)o1 [Structure 87] |
| 0.1 to 1 µM | 0.1 to 1 µM | 0.1 to 1 µM | CC(C)CNC(=O)[C@H](NC(=O)[C@H](C)C[C@H](O)[C@@H](CC(C)C)NC(=O)[C@H](CS(C)(=O)=O)NC(=O)OCc1ccn(C)n1)C(C)C [Structure 20] |
| 0.1 to 1 µM | > 1 µM | > 1 µM | Cc1nc(COC(=O)N[C@@H](CS(C)(=O)=O)C(=O)N[C@H](CC(C)C)[C@@H](O)C[C@@H](C)C(=O)N[C@@H](C(=O)NCC(C)C)C(C)C)no1 [Structure 62] |
| > 1 µM | 0.1 to 1 µM | 0.1 to 1 µM | Cc1csc(COC(=O)N[C@@H](CS(C)(=O)=O)C(=O)N[C@H](CC(C)C)[C@@H](O)C[C@@H](C)C(=O)N[C@@H](C(=O)NCC(C)C)C2CCCCC2)n1 [Structure 33] |
| > 1 µM | > 1 µM | > 1 µM | Cc1csc(COC(=O)N[C@@H](CS(C)(=O)=O)C(=O)N[C@@H](CC(C)C)[C@@H](O)C[C@@H](C)C(=O)NN(C)S(C)(=O)=O)n1 [Structure 63] |
| > 1 µM | > 1 µM | > 1 µM | Cc1csc(COC(=O)N[C@@H](CS(C)(=O)=O)C(=O)N[C@@H](CC(C)C)[C@@H](O)C[C@@H](C)C(=O)N[C@H]2CCNC2=O)n1 [Structure 83] |
| – | > 1 µM | > 1 µM | Cc1nc(COC(=O)N[C@@H](CS(C)(=O)=O)C(=O)N[C@H](CC(C)C)[C@@H](O)C[C@@H](C)C(=O)NCC(C)C)c(C)o1 [Structure 42] |
| – | 0.1 to 1 µM | – | Cc1nc(COC(=O)N[C@@H](CS(C)(=O)=O)C(=O)N[C@H](CC(C)C)[C@@H](O)C[C@@H](C)C(=O)N[C@@H](C(=O)NCC(C)C)C(C)C)cs1 [Structure 26] |
